Test results taken from patent US10597398B2, “Suppression and regeneration promoting effect of low molecular weight compound on cancer and fibrosis” (NATIONAL UNIVERSITY CORPORATION TOTTORI UNIVERSITY, priority 2015, dated 2020).

Legend:
[1] = test system: CD44-expressing HSC2 cells; assay: CD44-expressing cells in HSC2 cells (cell sorter analysis); format: cell-based, human; details: 48 h, 25 μM IC-2 or 0.5 μM 5-FU, 83.9% without treatment
Procedure: In addition, HSC2 cells were seeded at 5×10^5 cells/10-cm cell culture dish (TPP). After 24 h, the cells were treated with 0.5 μM of 5-FU or 25 μM of IC-2. Also prepared were cells without low-molecular-weight compound treatment (0 μM). After additional 48 h, the respective cells were harvested. As a primary antibody, used was a mouse anti-human CD44 antibody (Abcam Ltd., Cambridge, UK). Then, Alexa Fluor 488-labeled goat anti-mouse IgG (H+L) (Life Technologies Corp., Carlsbad, Calif.) was used. After that, a cell sorter BD bioscience FACS Aria (Becton, Dickinson and Company, Franklin Lakes, N.J.) was used for analysis.

[2] = Liver cancer model mouse, body weight; format: in vivo, mice; details: 30 mg/kg 5-FU or 50 mg/kg IC-2 intraperitoneally every three days
Procedure: CD44-positive HuH-7 cells were subcutaneously transplanted in mice. Next, the engrafted mice were divided into 3 groups (DMSO group: 5 mice; 5-FU group: 4 mice; and IC-2 group: 4 mice). Then, DMSO was added to prepare 30 mg/kg of 5-FU and 50 mg/kg of IC-2 such that each liquid volume was 100 μL; and 100% DMSO, a solvent for each drug, was used as a control sample. Subsequently, each drug was dosed intraperitoneally every three days. The body weight of each mouse and the long and short diameters of a tumor were measured every three days. The tumor volume was calculated by using the following equation: Tumor volume=Long diameter×(Short diameter)^2×0.5. The volume at Day 0 was used to normalize each tumor volume, and then a graph was created. To fully evaluate a 5-FU effect, the 5-FU dose was set to an amount 2 times the regular amount 15 mg/kg used in research articles. The concentration of IC-2 corresponding to a concentration at which Wnt/β-catenin signaling was inhibited in vitro was calculated. Then, the concentration was doubled to set an IC-2 dose.

[3] = test system: cancer stem cells (CD44) in HuH-7 cells; assay: Inhibitory effect on cancer stem cells (FCM analysis of CD44), Example 6.4; format: cell-based, human; details: CD44, day 2, IC-2 50 μM, 5-FU 0.5 μM, compared with control 1% DMSO
Procedure: CD44, a cancer stem cell marker, was used as an indicator to examine an inhibitory effect of IC-2 on cancer stem cells. First, 70 to 90% confluent HuH-7 cells were harvested and seeded at 1.5×10^6 cells per 10-cm cell culture dish. After 15 h, the cells were treated with hexachlorophene (15 μM), ICG-001 (15 μM), PKF118-310 (5 μM), IC-2 (50 μM), or 5-FU (0.5 μM), and the mixture was cultured at 37° C. Each control sample used was 1% DMSO, a solvent for each compound or the anti-cancer drug. Day 2 after the drug treatment, the cells were harvested from each culture dish. The cells were centrifuged at 1000 rpm and at 4° C. for 5 min to remove a supernatant and were then washed twice with 1 mL of 0.5% FBS/2 mM EDTA/PBS. Next, the cells were suspended in 500 μL of 5% BSA/0.5% FBS/2 mM EDTA/PBS for blocking at 4° C. for 15 min.
Then, 5 μL of a mouse anti-human CD44 monoclonal antibody (156-3C11, Cell Signaling Technology Inc., Danvers, Mass.) was added to 500 μL of the cell suspension. The mixture was resuspended and subjected to a primary antibody reaction in a dark room at 4° C. for 10 min. After that, the cells were washed 3 times with 1 mL of PBS. Subsequently, 1.0 μg of Alexa Fluor 488-labeled IgG (H+L) (Life Technologies Corp., Carlsbad, Calif.) was added and the mixture was suspended. Then, a secondary antibody reaction was carried out in a dark room at 4° C. for 10 min. […]

CD44high DLD-1 cells = assay: CD44high cells in DLD-1 cells (FCM analysis); format: cell-based, human; details: 48 h, 50 μM IC-2, 0.5 or 5 μM 5-FU, compared with control
Procedure: In addition, DLD-1 cells were seeded at 1×10^6 cells/10-cm cell culture dish. After 24 h, the cells were treated with 0.5 or 5 μM of 5-FU or 50 μM of IC-2. At additional 48 h, the cells were harvested. As a primary antibody, used was a mouse anti-human CD44 antibody (Abcam Ltd., Cambridge, UK). Then, Alexa Fluor 488-labeled goat anti-mouse IgG (H+L) (Life Technologies Corp., Carlsbad, Calif.) was used. After that, a MoFlo XDP (Beckman Coulter Inc., Fullerton, Calif.) was used for analysis.

Wnt/β-catenin signal = details: as described in Patent Literature 1; cited from earlier work
cancer stem cells = details: Fbxw7-deficient model mice, Takeishi et al. 2013; cited from earlier work

SMILES: O=c1[nH]cc(F)c(=O)[nH]1 [Compound 5-FU, 5-fluorouracil, reference compound]
- percentage of CD44-expressing cells [1]: 83.3%
- body weight [2]: no change in the body weight
- number of cancer stem cells [3]: rather increased the number of cancer stem cells
- percentage of CD44high cells (CD44high DLD-1 cells): rather increased the percentage

SMILES: COc1c(Cl)cc(Cl)c(Cl)c1Cc1c(Cl)c(Cl)cc(Cl)c1OC [HC-1, hexachlorophene methyl ether bis(2,3,5-trichloro-6-methoxyphenyl)methane]
- Wnt/β-catenin signal in a mesenchymal stem cell and differentiation into hepatocytes (Wnt/β-catenin signal): inhibit a Wnt/β-catenin signal in a mesenchymal stem cell, thereby inducing differentiation of the mesenchymal stem cell into hepatocytes

SMILES: Cc1ccc(NC(=O)c2ccc(CN3CCN(C)CC3)cc2)cc1Nc1nccc(-c2cccnc2)n1 [imatinib]
- cancer stem cells (cancer stem cells): cancer stem cells were killed
